These results are taken from patent US20130131008A1, “LIPOPHILIC MONOPHOSPHORYLATED DERIVATIVES AND NANOPARTICLES” (BOARD OF REGENTS, THE UNIVERSITY OF TEXAS SYSTEM, priority 2011, published 2013).

The test system of series [1] is CCRF-CEM cells. As to the kind of experiment: In vitro cytotoxicity assay (MTT), 72 h. Type of series: cell-based, human. Particulars: 72 h incubation. From the text: (§1) Human leukemia cell line CCRF-CEM (CCL-119), human pancreatic cancer cell lines PANC-1 (CRL-1469), MIA PaCa-2 (CRL-1420), and BxPC-3 (CRL-1687), human breast adenocarcinoma cell line MCF-7 (HTB-22), and mouse lung cancer cell line TC-1 (CRL-2785) were from the American Type Culture Collection (Rockville, Md.). CCRF-CEM-AraC-8C cells (hENT1 deficient) and CCRF-CEM/dCK^−/− cells (dCK deficient) were kindly provided by Dr. Buddy Ullmann (Oregon Health & Science University, Portland, Oreg.) and Dr. Margaret Black (Washington State University, Pullman, Wash.), respectively. L1210 wt and L1210 10K were kindly supplied by Dr. Lars Petter Jordheim (Université Claude Bernard Lyon I, Lyon, France). TC-1-GR cells were previously developed in our lab. CCRF-CEM, CCRF-CEM-AraC-8C, CCRF-CEM/dCK^−/−, L1210 wt, L1210 10K, TC-1, and TC-1-GR cells were cultured in RPMI 1640 medium. MCF-7 and PANC-1 cells were cultured in Dulbecco's modified Eagle medium (DMEM), MIA PaCa-2 cells were cultured in DMEM medium with 2.5% horse serum. All media were supplemented with 10% fetal bovine serum (FBS), 100 U/mL of penicillin, and 100 μg/mL of streptomycin (all from Invitrogen, Carlsbad, Calif.).
(§2) Cells (5,000/well) were seeded in 96-well plates. After overnight incubation, they were treated with various concentrations of gemcitabine HCl, gemcitabine derivatives, or gemcitabine derivatives in nanoparticles at 37° C., 5% CO2. TC-1 and TC-1-GR cells were incubated for 48 h. CCRF-CEM, CCRF-CEM-AraC-8C, CCRF-CEM/dCK^−/−, L1210 wt, L1210 10K, and MCF-7 cells were incubated for 72 h, and MIA PaCa-2 and PANC-1 for 96 h. Gemcitabine HCl was dissolved in phosphate-buffered saline (PBS), and gemcitabine derivatives were dissolved in dimethyl sulfoxide (DMSO). […] The number of viable cells after the incubation was determined using an MTT assay. Briefly, 3-(4,5-dimethylthiazol-2-yl)-2,5-diphenyltetrazolium bromide (20 μl, 5 mg/mL) was added in each well and incubated for 3 h. Formazan crystals were solubilized with acidified isopropanol (150 μl) (for CCRF-CEM, CCRF-CEM-AraC-8C, CCRF-CEM/dCK^−/−, L1210 wt, and L1210 10K cells) or DMSO (150 μl) (for TC-1, TC-1-GR, MCF-7, PANC-1, and MIA PaCa-2). Absorbance was measured using a BioTek Synergy™ HT Multi-Mode Microplate Reader (BioTek Instruments, Winooski, Vt.) at 570 nm and 630 nm. The fraction of affected (dead) cells (Fa) and the fraction of unaffected (live) cells (Fu) at every dose were calculated, and the Log(Fa/Fu) values were plotted against the Log(concentration of gemcitabine). IC50 was the dose at Log(Fa/Fu)=0, See e.g., Chou, T. C. & Talalay, P., 1984, Adv. Enzyme Regul. 22:27-55. The experiment was repeated at least three times.

For series [2], the system named is MIA PaCa-2 cells. As to the kind of experiment: In vitro cytotoxicity assay (MTT), 96 h. In kind it is cell-based, human. The conditions noted are these: 96 h incubation.
Description: as §1, §2

Series [3] concerns CCRF-CEM-AraC-8C cells. In words: In vitro cytotoxicity assay (MTT), 72 h, hENT1 deficient cells. Type of series: cell-based, human. Particulars: for IC50: MTT, 72 h incubation, hENT1 deficient.
Description: as §1, §2

In series [4] the test system is TC-1 cells. As to the kind of experiment: In vitro cytotoxicity assay (MTT), 48 h. Type of series: cell-based. Particulars: 48 h incubation.
Description: as §1, §2

The subject of series [5] is TC-1-GR cells. As to the kind of experiment: cells. The conditions noted are these: for IC50: MTT, 48 h incubation, RRM1 over-expressing. Type of series: cell-based.
Description: as §1, §2

The subject of series [6] is PANC-1 cells. In words: In vitro cytotoxicity assay (MTT), 96 h, RRM2 over-expressing cells. Type of series: cell-based, human. The conditions noted are these: for IC50: MTT, 96 h incubation, RRM2 over-expressing.
Description: as §1, §2

A short description of series [7]: Solubility observations (DMSO, water). In kind it is physicochemical. The conditions noted are these: for the in vitro cytotoxicity assay.
Series [8] deals with B16-F10 melanoma tumor. As to the kind of experiment: Antitumor activity of GemC18/PEG-C18 micelles in mice with B16-F10 tumors (Example 20). Particulars: C57BL/6 mice, tail vein injection, 0.283 mg GemHCl or molar equivalent GemC18; 2 doses (micelles 3 doses), 3 days apart. Type of series: in vivo, mouse. On the procedure: The in vivo antitumor activity of GemC18/PEG-C18 micelles was evaluated in C57BL/6 mice with subcutaneously inoculated B16-F10 cells (5.0×10^5/mouse) in the right flank. Treatments were given 6 days after tumor cell inoculation by tail vein injection with normal saline, Gemcitabine HCl (GemHCl) solution, GemC18 solution, blank PEG-C18 micelles, or GemC18/PEG-C18 micelles. The dose was 0.283 mg of GemHCl or molar equivalent amount of GemC18. All groups received a second dose three days after the first dose, while the GemC18/PEG-C18 micelle group also received a third dose 3 days after the second dose. Tumor sizes were measured with calipers in two perpendicular diameters every day and reported as tumor volume (V=½ [a×b^2], a=longer diameter, b=shorter diameter).

Series [9] concerns CCRF-CEM/dCK−/− cells. In words: In vitro cytotoxicity assay (MTT), 72 h, dCK deficient cells. In kind it is cell-based, human. Particulars: MTT, 72 h incubation; dCK deficient.
Description: as §1
Cells (5,000/well) were seeded in 96-well plates. After overnight incubation, they were treated with various concentrations of gemcitabine HCl, gemcitabine derivatives, or gemcitabine derivatives in nanoparticles at 37° C., 5% CO2. TC-1 and TC-1-GR cells were incubated for 48 h. CCRF-CEM, CCRF-CEM-AraC-8C, CCRF-CEM/dCK^−/−, L1210 wt, L1210 10K, and MCF-7 cells were incubated for 72 h, and MIA PaCa-2 and PANC-1 for 96 h. […] The number of viable cells after the incubation was determined using an MTT assay. […] Absorbance was measured using a BioTek Synergy™ HT Multi-Mode Microplate Reader (BioTek Instruments, Winooski, Vt.) at 570 nm and 630 nm. The fraction of affected (dead) cells (Fa) and the fraction of unaffected (live) cells (Fu) at every dose were calculated, and the Log(Fa/Fu) values were plotted against the Log(concentration of gemcitabine). […]

[10] abbreviates: IC50 of gemcitabine HCl divided by that of the derivatives or derivatives in nanoparticles.

Each structure is given as a SMILES string.

The IC50 is the concentration that inhibits the measured activity by half.

`CCCCCCCCCCCCCCCCCC(=O)OCC(Cl)COP(=O)(O)OC[C@H]1O[C@@H](n2ccc(N)nc2=O)C(F)(F)[C@@H]1O` (mixture of isomers) [Compound 12, 2′-2′-difluoro-2′-deoxycytidine 5′(3-stearoyloxy-2-rac-chloropropyl)phosphate]: the half-inhibitory concentration (IC50) in [1] worked out at 0.0498 ± 0.0059 µM; in series [2], 0.245 ± 0.038 µM; in series [3], 1.77 ± 0.533 µM; in series [4], 0.43 ± 0.0524 µM; in series [5] it was 76.3 ± 10.5 µM; in series [6], 58.7 ± 14.2 µM.

On to `CCCCCCCCCCCCCCCCCC(=O)Nc1ccn([C@@H]2O[C@H](COP(=O)(O)O)C(O)C2(F)F)c(=O)n1` (stereo in doubt) [Compound 13, 4-N-Octadecanoyl-2′-2′-difluoro-2′-deoxycytidine 5′-sodiumphosphate], for which the “solubility in DMSO” value in [7] is on record as “not sufficiently solubilized in DMSO”.

For the compound `CCCCCCCCCCCCCCCCCC(=O)Nc1ccn([C@@H]2OC(CO)C(O)C2(F)F)c(=O)n1` (stereo partly shown) [GemC18, 4-N-stearoyl gemcitabine], the IC50 was determined as 0.0194 ± 0.0133 µM in series [1]; 0.133 ± 0.0604 µM in series [2]; 0.369 ± 0.235 µM in series [3]; 0.132 ± 0.0172 µM in [4]; 7.7 ± 2.4 µM in series [5]; 6 ± 1.1 µM in series [6]. For the same compound, in [9], the IC50 turned out to be 47.3 ± 8.7 µM. Further, the “Ratio of IC50 in CCRF-CEM-AraC-8C to that in CCRF-CEM” value in series [3] came out at 19. In addition, the “Ratio of IC50 values in CEM-AraC-8C cells” value in [3] (setting [10]) was determined as 2.7. Further, the “Ratio of IC50 values in TC-1-GR cells” value in series [5] (setting [10]) is 5. For the same compound, in series [8], the “B16-F10 tumor growth (tumor volume)” value was “not significant different from that in mice that received normal saline”. For the same compound, the “Ratio of IC50 in PANC-1 to that in MIA PaCa-2” value in series [6] is 45.

For `CCCCCCCCCCCCCCCCCCOP(=O)(O)OC[C@H]1O[C@@H](n2ccc(NC(C)=O)nc2=O)C(F)(F)[C@@H]1O` [Compound 9, 4-N-acetyl-2′-2′-difluoro-2′-deoxycytidine-5′-octadecylphosphate], the IC50 was 0.0581 ± 0.0185 µM in series [1]; 0.205 ± 0.0395 µM in series [2]; 0.575 ± 0.0971 µM in series [3]; 0.211 ± 0.085 µM in [4]; 9.3 ± 2.5 µM in [5]; 38.5 ± 5.7 µM in series [6].
